Measurements: patent US11591316B2, “Compounds, compositions, and methods” (DENALI THERAPEUTICS INC., priority 2016, dated 2023)

Assay: Metabolic stability in human liver microsomes
Type: in vitro ADME
Conditions: 1 μM compound, 0.5 mg/mL protein, projected hepatic clearance (well-stirred model), Table 5
Description: Metabolic stability of compounds was evaluated in human liver microsomes (from Corning or XenoTech, LLC) using a 96-well plate assay format. Compounds were incubated at 37° C. at 1 μM final concentration in the microsomal matrix (0.5 mg/mL total protein) in the presence or absence of NADPH cofactor. An NADPH regenerating system, comprised of NADP, MgCl2, isocitric acid, and isocitrate dehydrogenase, was used in the assay. Enzymatic reactions were conducted for 0, 5, 10, 20, 30, or 60 min before termination by addition of acetonitrile containing tolbutamide and labetalol internal standards (100 ng/mL). After shaking for 10 min, plates were subjected to centrifugation (4000 rpm at 4° C.) for 20 min and supernatants were mixed 1:3 with HPLC grade water. Samples were analyzed by LC-MS/MS using appropriate MRM transitions for each analyte and internal standard (IS). Analyte/IS peak area ratios were used to determine percent compound remaining at each time point. Intrinsic clearance (Clint; expressed as mL·min^−1·mg^−1) was calculated from the first order elimination constant (k, min^−1) of test article decay and the volume of the incubation. These values were scaled to intrinsic organ clearance (Clint) using human specific scaling factors (48.8 mg microsomal protein per g liver; 25.7 g liver per kg body weight). […]

Row | SMILES | Human liver microsomes CLhep [mL/min/kg]
1 | [2H]C([2H])([2H])n1nc(C(C)(C)n2nccn2)cc1Nc1ncc(C(F)(F)F)c(NCC)n1 [Compound 34, N4-Ethyl-N2-[1-(^2H3)methyl-3-[2-(2H-1,2,3-triazol-2-yl)propan-2-yl]-1H-pyrazol-5-yl]-5-(trifluoromethyl)pyrimidine-2,4-diamine] | 0.75
2 | CNc1nc(Nc2cn(C(C)(C)c3ncn(C)n3)nc2C)ncc1C(F)(F)F [Compound 218] | 0
